Assay results reported in PubChem BioAssay AID1996.
Converted amounts (≈) assume the structure as drawn.

conditions: buffer; pH 7.4; 200.0 µM

Row | SMILES | solubility kinetic
1 | CCOC(=O)/C(C#N)=C/C1=C(N2CCOCC2)CC(C)(C)OC1 | > 48.1 µg/mL
2 | CCn1c(N)c(Br)c(=O)[nH]c1=O | > 35.1 µg/mL
3 | CN(C(=O)c1ccc(Oc2ccc([N+](=O)[O-])cc2)cc1)C1CCCCC1 | 1 µg/mL (≈ 2.82 µM)
4 | Cc1onc(-c2ccccc2)c1CNS(=O)(=O)c1ccc(F)cc1F | 51.6 µg/mL (≈ 142 µM)
5 | CCOP(=O)(CN(CC)C(=O)c1ccccc1Br)OCC | > 56.7 µg/mL
6 | Cl.O=C1C2CCCC1C(N1CCCCC1)CC2 (centres undefined) | > 38.7 µg/mL
7 | CCOc1cc(/C=C2\SC(=O)N(c3ccc(O)cc3)C2=O)ccc1O | 4 µg/mL (≈ 11.2 µM)
8 | CN(C)CCNC(=S)NC1CCCCC1 | 32.7 µg/mL (≈ 143 µM)
9 | COC(=O)c1cc(C(C)=O)c(C)[nH]c1=O | > 31.4 µg/mL
10 | COc1cc(/C=C/[N+](=O)[O-])ccc1OC(=O)/C=C/c1ccc(F)cc1 | < 0.7 µg/mL
11 | O=C(COC(=O)c1cc(=O)[nH]c2ccccc12)Nc1ccc(F)cc1F | 13.7 µg/mL (≈ 38.2 µM)
12 | CN(C1CCCCC1)S(=O)(=O)c1ccc2[nH]c(=O)oc2c1 | > 46.6 µg/mL
13 | Cc1nc(N2CCN(C)CC2)c2cc(-c3ccccc3)sc2n1 | 1.8 µg/mL (≈ 5.55 µM)
14 | CCOc1cccc(/C=N/NC(=O)c2cccnc2)c1O | > 42.8 µg/mL
15 | COC(=O)c1cc(CSc2ncnc3sccc23)oc1C | 4.3 µg/mL (≈ 13.4 µM)
16 | CC(NS(=O)(=O)c1ccc2[nH]c(=O)c(=O)[nH]c2c1)C(=O)O (centres undefined) | 13.9 µg/mL (≈ 44.4 µM)
17 | O=C(CSc1nccc(=O)[nH]1)N1CCOCC1 | > 38.3 µg/mL
18 | CCOc1ccc(C(=O)N[C@H](C(=O)Nc2ccc(S(=O)(=O)Nc3nccs3)cc2)C(C)C)cc1 | 62.3 µg/mL (≈ 124 µM)
19 | Cc1nc2ccc(NC(=S)NCc3ccccc3)cc2nc1C | > 48.4 µg/mL
20 | O=S(=O)(c1ccc(Cl)cc1)n1cnc2ccccc21 | > 43.9 µg/mL
21 | CN(C(=O)c1cccc(NC(=O)Cc2ccccc2)c1)c1ccccc1 | > 51.7 µg/mL
22 | C=CCN1CC(C)/C(=N\O)CC1C (centres undefined) | 26.4 µg/mL (≈ 145 µM)
23 | Cc1cc(=O)oc2cc(NC(=O)CC3(CC(=O)O)CCCC3)ccc12 | 50.2 µg/mL (≈ 146 µM)
24 | CC(=O)c1c(OC(=O)c2ccccc2)ccnc1C(F)(F)F | > 46.4 µg/mL

Row | SMILES | solubility kinetic
25 | COCC(=O)Nc1cc(Cl)ccc1C | > 32 µg/mL
26 | O=S(=O)(Nc1ccccc1N1CCCCC1)c1ccc(F)cc1 | 2.5 µg/mL (≈ 7.48 µM)
27 | CC(=O)c1ccc(OCC(=O)N2CCCC2c2ccc3c(c2)OCCCO3)cc1 (centres undefined) | 49.2 µg/mL (≈ 124 µM)
28 | CSc1ccccc1NS(=O)(=O)c1cccc2nonc12 | > 48.2 µg/mL
29 | COc1cccc2cc(C(=O)NC(C)c3ccccc3)c(=O)oc12 (centres undefined) | < 0.7 µg/mL
30 | CN(C)c1ccc(P(=O)(OC2CCCCC2)C(O)c2ccncc2)cc1 (centres undefined) | 52.8 µg/mL (≈ 141 µM)
31 | c1ccc2c(c1)cnc1ccccc12 | 7.7 µg/mL (≈ 43 µM)
32 | O=C1N=C(N2CCCCC2)S/C1=C\c1ccccc1F | 4.7 µg/mL (≈ 16.2 µM)
33 | Cc1cc(CNC(=O)Cc2ccccc2)c2ccccc2n1 | > 43.6 µg/mL
34 | CS(=O)(=O)N1CCC(C(=O)N2CCN(Cc3ccccc3)CC2)CC1 | > 54.8 µg/mL
35 | O=C(c1cnccn1)N1CCN(S(=O)(=O)c2cccc(Cl)c2)CC1 | > 55 µg/mL
36 | COc1ccc(NC(=O)C2CCN(C(=O)c3ccco3)CC2)c(OC)c1 | 44.2 µg/mL (≈ 123 µM)
37 | CCc1ccc(-c2cnc3nc[nH]c(=O)c3n2)cc1 | > 37.8 µg/mL
38 | COc1ccccc1N1C(=O)C(Cl)=C(N2CCCC2)C1=O | 9.4 µg/mL (≈ 30.6 µM)
39 | COc1ccc(CC(=O)N2CCCC2)c(OC)c1 | 36.6 µg/mL (≈ 147 µM)
40 | Fc1ccc(CCNC(=S)Nc2ccc(F)c(Cl)c2)cc1 | 23.9 µg/mL (≈ 73.1 µM)
41 | Nc1ccc(C(=O)NC23CC4CC(CC(C4)C2)C3)cc1 | 37.3 µg/mL (≈ 138 µM)
42 | Cc1ccc([N+](=O)[O-])cc1N(CC(=O)NC1CCCC1)S(C)(=O)=O | > 53.3 µg/mL
43 | COc1ccccc1N1C(=O)C=C(Sc2nc(C)cc(C)n2)C1=O | 9.1 µg/mL (≈ 26.7 µM)
44 | Cc1oc(S(=O)(=O)N(C)C)cc1C(=O)Nc1ccc(Cl)cc1 | < 0.4 µg/mL
45 | Cc1ccc(C)n1CCN1CCN(C(=O)c2ccc(Cl)cc2)CC1 | 36.3 µg/mL (≈ 105 µM)
46 | CC1CCC(NC(=O)CN2C(=O)NC(C)(C)C2=O)CC1 (centres undefined) | > 42.2 µg/mL
47 | COc1ccc(CNC(=S)NCc2ccc(Cl)cc2)cc1OC | 35 µg/mL (≈ 99.8 µM)
48 | Cc1ccc(NC(=O)c2ccc3c(c2)NC(=O)CS3)nc1 | 5.3 µg/mL (≈ 17.7 µM)

Row | SMILES | solubility kinetic
49 | CCOc1ccc2oc(C(=O)OCC(=O)NC3CC3)c(C)c2c1 | 1.5 µg/mL (≈ 4.73 µM)
50 | O=Cc1c(SCCO)nc2ccccn2c1=O | 17.6 µg/mL (≈ 70.3 µM)
51 | O=c1c2[nH]c3cccc(Cl)c3c2ncn1Cc1ccco1 | 0.5 µg/mL (≈ 1.67 µM)
52 | O=C(c1cc2c(ccc3ccccc32)o1)N1CCCCC1 | 2.6 µg/mL (≈ 9.31 µM)
53 | Cc1ccc(OCc2ccc(-c3ccccc3)cc2)c([N+](=O)[O-])n1 | 0.4 µg/mL (≈ 1.25 µM)
54 | NCc1oc(-c2ccccc2)cc1C(=O)O | 22.2 µg/mL (≈ 102 µM)
55 | CC1(C)Cc2c(sc3c2c(N)nc(=S)n3Cc2ccccc2)CO1 | 2.3 µg/mL (≈ 6.43 µM)
56 | N#C/C(=C\c1ccccc1C(=O)O)c1nc2ccccc2[nH]1 | > 43.4 µg/mL
57 | CCCC(=O)Oc1ccc(-c2nccc(C(OC)OC)n2)cc1 | 46.1 µg/mL (≈ 146 µM)
58 | O=C1CCC(C(=O)Nc2ccc(Cl)cc2)N1 (centres undefined) | > 35.8 µg/mL
59 | O=C(O)CCC(=O)NNC(=O)c1ccc([N+](=O)[O-])cc1 | > 42.2 µg/mL
60 | O=C(NCCc1c[nH]c2ccccc12)c1ccc(Br)o1 | 45.7 µg/mL (≈ 137 µM)
61 | COc1ccc(N(C=O)C(C(=O)Nc2c(C)cccc2C)c2ccccc2)cc1 (centres undefined) | 1.6 µg/mL (≈ 4.12 µM)
62 | COc1ccc(N2CCN(C(=O)c3cc4ccccc4o3)CC2)cc1 | < 0.4 µg/mL
63 | CCOc1cc2c(cc1/C=C1/NC(=O)N(CC(=O)OC)C1=O)OCO2 | 2.9 µg/mL (≈ 8.33 µM)
64 | COCCCNC(=S)N(Cc1ccccc1)Cc1ccc(F)cc1 | 22.1 µg/mL (≈ 63.8 µM)
65 | S=C(NCc1ccccc1)Nc1cccc2cnccc12 | > 44 µg/mL
66 | Cc1nc2ccccc2n1Cc1ccc(Br)cc1 | 37.8 µg/mL (≈ 126 µM)
67 | O=C1NCCN/C1=C\C(=O)c1cccc(Br)c1 | > 44.3 µg/mL
68 | COc1ccc(C(=O)NCCCn2ccnc2)cc1[N+](=O)[O-] | > 45.6 µg/mL
69 | COc1cccc(-c2nc3ccc(N4CCN(C)CC4)cc3[nH]2)c1 | 14.5 µg/mL (≈ 45 µM)
70 | O=[N+]([O-])c1ccc(N2CCN(c3ccccc3F)CC2)nc1 | 0.7 µg/mL (≈ 2.32 µM)
71 | Cc1ccc(CN(C)C(=O)CCNS(=O)(=O)c2ccccc2)o1 | > 50.5 µg/mL
72 | CCOc1nc2ccccc2cc1C=O | 6.6 µg/mL (≈ 32.8 µM)

Row | SMILES | solubility kinetic
73 | CC1CC(NC(=O)/C=C/C(=O)O)CC(C)(C)C1 (centres undefined) | > 35.9 µg/mL
74 | CC(=O)Nc1ccc2c(COC(=O)[C@@H](NS(=O)(=O)c3ccc(C)cc3)C(C)C)cc(=O)oc2c1 | 8.6 µg/mL (≈ 17.7 µM)
75 | COC(=O)c1ccc(C[n+]2ccccc2)cc1.[Br-] | > 46.2 µg/mL
76 | CC(=O)Nc1ccc(SCC(=O)Nc2ccc3c(c2)OCCO3)cc1 | > 53.8 µg/mL
77 | Cc1c(N2CCCC2)cc2c(c1N)C(C)(C)CC2(C)C | 19.2 µg/mL (≈ 70.5 µM)
78 | CN1C(=O)Cc2cc(S(=O)(=O)NCCc3ccccc3)ccc21 | 39.1 µg/mL (≈ 118 µM)
79 | COC(=O)[C@H](Cc1ccccc1)NC(=O)Nc1ccc(OC)cc1 | 47 µg/mL (≈ 143 µM)
80 | Cc1ccc(C)c(Cn2cnc3c(oc4ccccc43)c2=O)c1 | < 0.3 µg/mL
81 | O=c1c(Cc2ccc(F)cc2)c(O)ccn1Cc1ccco1 | 33 µg/mL (≈ 110 µM)
82 | CC(=O)c1ccccc1Oc1ncnc(N)c1[N+](=O)[O-] | > 41.1 µg/mL
83 | Cc1ccc(CNc2nc(C)c(C(=O)N(C)C)s2)cc1 | > 43.4 µg/mL
84 | COc1ccc(/C=C/C(=O)N2CC(C)OC(C)C2)cc1OC (centres undefined) | 45.4 µg/mL (≈ 149 µM)
85 | Cc1ccc(NC(=O)CSc2ccc3c(c2)OCCO3)c(O)c1 | 36.9 µg/mL (≈ 111 µM)
86 | Cc1nc([N+](=O)[O-])c(Br)n1Cc1ccccc1 | > 44.4 µg/mL
87 | O=C(Nc1cc(Cl)ccc1O)C1CC(c2ccccc2O)=NO1 (centres undefined) | 5.8 µg/mL (≈ 17.4 µM)
88 | CN1CCC(N(C)C(=O)c2ccccc2F)CC1.Cl | 42.9 µg/mL
89 | COc1ccccc1C1CCN(Cc2ccc(C)cc2)CC1 | 29.8 µg/mL (≈ 101 µM)
90 | COc1cc(C2SCC(=O)N2Cc2ccccc2)ccc1O (centres undefined) | > 47.3 µg/mL
91 | Nc1nnc(SCC(=O)N2CCCCC2)s1 | > 38.8 µg/mL
92 | O=C(NCc1ccncc1)C1=NN(c2ccccc2)C(=O)CC1 | > 46.3 µg/mL
93 | N#C/C(=C\N1CCCCC1)S(=O)(=O)c1ccc(Cl)cc1 | 8.2 µg/mL (≈ 26.4 µM)
94 | COc1ccc(C(=O)OCC(=O)N2CCc3ccccc32)cc1S(=O)(=O)N1CCOCC1 | 24.8 µg/mL (≈ 53.9 µM)
95 | O=C(NC1CCCC1)c1cc(-c2ccc(Cl)cc2)on1 | < 0.3 µg/mL
96 | Oc1cccc(/C=C/c2ccc3cccc(O)c3n2)c1 | 2.3 µg/mL (≈ 8.74 µM)

Row | SMILES | solubility kinetic
97 | O=C(O)CCNS(=O)(=O)c1ccc2c(c1)CCCC2 | > 42.5 µg/mL
98 | O=C(CN1CCCCCC1)Nc1ccccc1[N+](=O)[O-] | 14 µg/mL (≈ 50.5 µM)
99 | CCn1c(SCc2ccccc2)nc2ccccc2c1=O | 1.3 µg/mL (≈ 4.39 µM)
100 | CN(C)C(CNC(=O)c1ccc(C(F)(F)F)cc1)c1ccco1 (centres undefined) | > 48.9 µg/mL
101 | Cc1cccc(OCC(O)CN2CCOCC2)c1.Cl (centres undefined) | > 43.2 µg/mL
102 | Cc1ccccc1C(=O)Nc1ccc(N(C)C)c2ccccc12 | 13.6 µg/mL (≈ 44.7 µM)
103 | COC(=O)CCN(C(=O)c1ccc([N+](=O)[O-])cc1)c1ccccn1 | > 49.4 µg/mL
104 | CC(=O)N1CCCc2cc(S(=O)(=O)N3CCCC3)ccc21 | > 46.3 µg/mL
105 | CCN(Cc1cc(=O)[nH]c2ccccc12)C(=O)C(C)C | > 40.9 µg/mL
106 | CCOc1ccc(Cc2noc3c2C(=O)CC(C)(C)C3)cc1OCC | 46.4 µg/mL (≈ 135 µM)
107 | c1ccc(CNc2nc(-c3ccccc3)nc3ccccc23)cc1 | 1.2 µg/mL (≈ 3.85 µM)
108 | CC(=O)c1c(C)n(-c2cccc(Cl)c2)c2ccc(O)cc12 | < 0.6 µg/mL
109 | CS(=O)(=O)N1CCN(c2ccc([N+](=O)[O-])c3cccnc23)CC1 | 9.7 µg/mL (≈ 28.8 µM)
110 | CC1=C/C(=N\OS(=O)(=O)c2ccccc2)C=CC1=O | 7.9 µg/mL (≈ 28.5 µM)
111 | Clc1ccc(-c2cc(-c3ccccn3)on2)c(Cl)c1 | < 0.3 µg/mL
112 | Cc1ccc(C)n1CCN1CCN(S(=O)(=O)c2ccc(F)cc2F)CC1 | 26.1 µg/mL (≈ 68.1 µM)
113 | CCCCNC(=O)NC(C(N)=O)P(=O)(OCC)OCC (centres undefined) | > 46.4 µg/mL
114 | CC(=O)N(C)c1ccc(NC(=O)Nc2ccc(Cl)cc2)cc1 | 45.2 µg/mL (≈ 142 µM)
115 | CN(C)CC(C)(C)CNS(=O)(=O)c1ccc(Cl)cc1.Cl | 49.4 µg/mL
116 | Cc1nn(C)c(C)c1NS(=O)(=O)c1ccc(Cl)cc1 | > 45 µg/mL
117 | Nc1cc(C(F)(F)F)cc([N+](=O)[O-])c1N | > 33.2 µg/mL
118 | Fc1ccccc1NC(=S)NC1CCCC1 | 35.2 µg/mL (≈ 148 µM)
119 | O=C(CC(c1ccccc1)c1ccccc1)NCCOCc1ccccc1 | 20.1 µg/mL (≈ 55.9 µM)
